Laboratory results published in ChEMBL document CHEMBL1201862, “PubChem BioAssay data set” (2004).
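All cell lines were grown in 96-well plates and treated with compound for 48 hours. GI50 = concentration required for 50% inhibition of growth.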 Activity calls are given as the source filed them. No stated cut-off is given here; in the data, active = GI50 up to about 1.1 µM and inactive = higher.

Legend:
Experiment in all cases: inhibition of tumour cell growth, NCI panel, 48 h
[1] = system: DLD-1
[2] = system: DMS-273
[3] = system: HOP-18
[4] = system: KM-20L2
[5] = system: LXFL 529
[6] = system: SNB-78
[7] = system: Hs-578T
[8] = system: RXF 631
[9] = system: XF498

Structure (SMILES)	GI50 [1]	GI50 [2]	GI50 [4]	GI50 [5]	GI50 [6]	GI50 [7]	also measured
CCOC(=O)/C=C1\Nc2ccccc2-n2nnnc21	> 100 µM (inactive)	30.3 µM (inactive)	> 100 µM (inactive)	> 100 µM (inactive)	> 100 µM (inactive)		GI50 [3]: > 100 µM (inactive)
Nc1nc(N)c2nc(CNc3ccc(C(=O)NC(CCC(=O)O)C(=O)O)cc3F)cnc2n1 (stereo not drawn)						> 100 µM (inactive)	
CCOC(=O)c1c(Br)c(-c2ccc(OC)cc2)c(Br)n1C						11.6 µM (inactive)	
C=CCC1(Sc2ccccn2)Sc2ccc3ccccc3c2-c2c(ccc3ccccc23)S1						> 100 µM (inactive)	
Cc1cn(C2CC(O)C(Cn3cc(Cn4ncc(=O)[nH]c4=O)nn3)O2)c(=O)[nH]c1=O (stereo not drawn)						> 100 µM (inactive)	
NNc1cnn(-c2ccccc2)c(=O)c1Cl	> 100 µM (inactive)	> 100 µM (inactive)	> 100 µM (inactive)	> 100 µM (inactive)	> 100 µM (inactive)		GI50 [3]: > 100 µM (inactive)
C[C@@H]1C[C@@H]2OC(=O)[C@]3(C)[C@H]2[C@@H](OC3(C)O)[C@]2(C)C(=O)C=C[C@@H]12 (stereo partly drawn) [TENULIN]						51.6 µM (inactive)	
CCCCCCCCCCCCCCCCNc1cccc2ccccc12	> 100 µM (inactive)	> 100 µM (inactive)	> 100 µM (inactive)	> 100 µM (inactive)	> 100 µM (inactive)		
O=C(NCCCNCCNC(=O)c1cc(-c2ccccc2)nc2ccccc12)c1cc(-c2ccccc2)nc2ccccc12						2.37 µM (inactive)	
c1ccc2c(c1)oc1ccc3nsnc3c12	> 100 µM (inactive)	> 100 µM (inactive)	> 100 µM (inactive)	> 100 µM (inactive)			GI50 [3]: > 100 µM (inactive); GI50 [8]: 46.9 µM (inactive)
C/C(CCn1[nH]c(=O)ccc1=O)=N\OCCCc1ccccc1	> 100 µM (inactive)	> 100 µM (inactive)	> 100 µM (inactive)	> 100 µM (inactive)	> 100 µM (inactive)		GI50 [3]: > 100 µM (inactive); GI50 [9]: > 100 µM (inactive)
O=C(O)C(Cc1ccccc1)N1C(=O)N/C(=C\c2ccc(F)cc2)C1=O (stereo not drawn)	> 100 µM (inactive)	> 100 µM (inactive)		> 100 µM (inactive)	18.4 µM (inactive)		GI50 [3]: > 100 µM (inactive)
O=S(=O)(CCC[C@H]1[C@@H](CCOCc2ccccc2)C2CCCN1O2)c1ccccc1 (stereo partly drawn)						> 100 µM (inactive)	
COc1ccc2c3c1O[C@H]1C(=O)C=CC4(n5[nH]c(=O)n(-c6ccccc6)c5=O)C(C2)N(C)CCC314 (stereo partly drawn)						> 100 µM (inactive)	
CCO/N=C(/N)c1ncn(Cc2ccccc2)c1NCC(OCC)OCC	> 100 µM (inactive)	> 100 µM (inactive)	> 100 µM (inactive)	> 100 µM (inactive)	> 100 µM (inactive)		GI50 [9]: 29.7 µM (inactive)
COC(=O)C1=CC(O)CCC1c1ccc(OC)cc1 (stereo not drawn)	> 100 µM (inactive)	> 100 µM (inactive)	> 100 µM (inactive)	> 100 µM (inactive)	> 100 µM (inactive)		GI50 [3]: > 100 µM (inactive)

Structure (SMILES)	GI50 [1]	GI50 [2]	GI50 [4]	GI50 [5]	GI50 [6]	GI50 [7]	also measured
CCC1([N+](=O)[O-])CC2C=CC1C2 (stereo not drawn)						> 100 µM (inactive)	
CC(C)(C)O/N=C/c1cc(NC(=S)c2ccccc2)ccc1Cl						22.5 µM (inactive)	
N#CCCN(CCC#N)C(=O)c1cccc(C(=O)N(CCC#N)CCC#N)c1	> 88.9 µM (inactive)	> 100 µM (inactive)	> 42.8 µM (inactive)	14.1 µM (inactive)	> 100 µM (inactive)		GI50 [9]: > 100 µM (inactive)
COc1ccc([C@H]2CC(=O)C[C@H](c3ccc(OC)cc3)C23C(=O)c2ccccc2C3=O)cc1						4.78 µM (inactive)	
CC(C)NC(=O)OCCN=C1c2ccccc2C(Br)C(Br)c2ccccc21 (stereo not drawn)						8.41 µM (inactive)	
Cc1ncc(CSc2ccccc2N)c(CO)c1O						> 100 µM (inactive)	
CC(=O)CC[N+](C)(C)C	10.1 µM (inactive)	21 µM (inactive)	25.7 µM (inactive)	12.9 µM (inactive)	12.5 µM (inactive)	12.6 µM (inactive)	GI50 [3]: 13.9 µM (inactive); GI50 [8]: 28.8 µM (inactive)
N#CC(c1ccccc1)N(CCc1ccccc1)C(=O)c1ccccc1 (stereo not drawn)						26.2 µM (inactive)	
CN(C)CC(C)(C)C(/C=C/c1ccccc1)=N\Nc1ccccc1	0.199 µM (active)	0.335 µM (active)	0.0217 µM (active)	0.197 µM (active)	11 µM (inactive)		GI50 [3]: 15.3 µM (inactive)
O=C1/C(=C/c2ccc([N+](=O)[O-])cc2)CNC/C1=C\c1ccc([N+](=O)[O-])cc1						4.36 µM (inactive)	
NC1=CN(Cc2ccccc2)C2=N/C(=C\c3ccccc3)C(=O)N12						> 100 µM (inactive)	
COc1nc2c(c(=O)n1C)N(C(C)=O)C1C(N2)OCC(OC(C)=O)C1OC(C)=O (stereo not drawn)						> 10 µM (inactive)	
CC1C2(C)OCC(C#N)(C(=N)O2)C1(C#N)C#N (stereo not drawn)						17.9 µM (inactive)	
CCCc1cc(COC)c(C#N)c(O)n1						> 100 µM (inactive)	
CS/C(=N\c1ccc([N+](=O)[O-])cc1C#N)NC(=O)c1ccccc1	> 100 µM (inactive)		> 100 µM (inactive)	> 100 µM (inactive)	> 100 µM (inactive)		GI50 [3]: 75.7 µM (inactive); GI50 [8]: > 100 µM (inactive); GI50 [9]: > 100 µM (inactive)
